The values below come from ChEMBL document CHEMBL1201862, “PubChem BioAssay data set” (2004).

Holding throughout (assay): NCI-60 cell line screen, 48 h
Experiment [1] deals with ACHN.
For experiment [2], the system named is CAKI-1.
Experiment [3] has as its system HCT-116.
The test system of experiment [4] is Hs-578T.
Experiment [5] relates to SF-539.
Experiment [6] relates to OVCAR-3.
Experiment [7] concerns RXF 393.
Experiment [8] relates to HCT-15.
Experiment [9] relates to NCI-H460.
In experiment [10] the test system is IGROV-1.
Experiment [11] deals with A549.
Experiment [12] concerns OVCAR-5.
The subject of experiment [13] is COLO 205.
Experiment [14] concerns PC-3.
In experiment [15] the test system is SK-MEL-2.
The subject of experiment [16] is NCI-H522.
Experiment [17] deals with NCI/ADR-RES.
The subject of experiment [18] is T47D.
Experiment [19] concerns OVCAR-8.
Experiment [20] concerns MDA-N.

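In this assay, cells in 96-well plates receive the compound at five concentrations for 48 hours. Endpoints are linearly interpolated between the surrounding concentrations. Abbreviation: GI50, concentration required for 50% inhibition of growth.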 Calls of active or inactive are those of the source. No stated cut-off is given here; in the data, active = GI50 up to about 1.1 µM and inactive = higher.

In the case of `O=[N+]([O-])c1cc(Cl)c(Cl)cc1[N+](=O)[O-]`, the GI50 in experiment [1] is 2.56 µM (inactive); in [2], 2.34 µM (inactive); in experiment [3], 20.1 µM (inactive); in experiment [4], 13.9 µM (inactive); in [5], 2.13 µM (inactive); in [6] it was 1.48 µM (inactive). Besides, the GI50 in [7] was 1.63 µM (inactive); in [8], 2.85 µM; in experiment [9] it was 3.24 µM (inactive); in experiment [10] it was 1.98 µM (inactive); in [11] it was 2.29 µM (inactive); in experiment [12], 2.51 µM (inactive). The GI50 was 5.77 µM (inactive) in experiment [13]; 1.74 µM (inactive) in experiment [14]; 2.44 µM (inactive) in experiment [15]; 1.87 µM (inactive) in [16]; 4.18 µM (inactive) in [17]; 3.24 µM (inactive) in experiment [18]. For the same molecule, the GI50 in [19] was 2.91 µM (inactive).

`NC(=O)c1nc[nH]c1/N=N/SCC(N)C(=O)O` (stereo not given): the GI50 was 13 µM (inactive) in experiment [1]; 4.21 µM (inactive) in experiment [2]; 6.9 µM (inactive) in experiment [3]; > 56.9 µM (inactive) in [4]; 17.6 µM (inactive) in experiment [5]; 19.1 µM (inactive) in [6]. Moreover, the GI50 in [7] is > 100 µM (inactive); in experiment [8], 43.2 µM; in experiment [9], 12.7 µM (inactive); in [10], 12.8 µM (inactive); in experiment [11], > 100 µM (inactive); in [12], > 94 µM (inactive). Further, the GI50 in [13] was 21.2 µM (inactive); in [14], 15.7 µM (inactive); in experiment [15], 3.33 µM (inactive); in [16], > 68.7 µM (inactive); in [17] it was 6.58 µM (inactive); in [18], > 60.5 µM (inactive). In experiment [19], the GI50 was 5.74 µM (inactive).

For the molecule `COc1ccc(CCNC(=O)CCc2ccccc2CO)cc1OC`, the GI50 in [1], in experiment [2], in experiment [3], in [4], in [5] and in experiment [6] was > 100 µM (inactive) throughout. Further, the GI50 in experiment [7] was > 100 µM (inactive); in experiment [8], over 100 µM; in experiment [9] it was > 100 µM (inactive); in experiment [10], > 100 µM (inactive); in [11], > 100 µM (inactive); in experiment [12], > 100 µM (inactive). Moreover, the GI50 in experiment [13], in experiment [14], in experiment [15], in [16], in [17] and in [18] was > 100 µM (inactive) throughout. The GI50 in [19] is > 100 µM (inactive).

Turning to `COc1cc(/C=C/c2cc(=O)cc(/C=C/c3ccc(O)c(OC)c3)o2)ccc1O`, the GI50 in [1] is 48.1 µM (inactive); in experiment [2], 64.3 µM (inactive); in experiment [3], > 55.5 µM (inactive); in experiment [4], 24.4 µM (inactive); in [5] it was > 62.5 µM (inactive); in experiment [6], 76.4 µM (inactive). In addition, the GI50 in experiment [7] was 15.9 µM (inactive); in experiment [8], 60.4 µM; in experiment [9] it was 44 µM (inactive); in experiment [10], > 100 µM (inactive); in experiment [11], 64.1 µM (inactive); in [12] it was > 100 µM (inactive). Further, the GI50 is > 100 µM (inactive) in [13]; > 85.9 µM (inactive) in experiment [14]; 41.2 µM (inactive) in [15]; 9.79 µM (inactive) in [16]; 98.4 µM (inactive) in experiment [17]; 15.3 µM (inactive) in experiment [18]. In addition, the GI50 in experiment [19] is 46.2 µM (inactive).

Consider `Cc1cc(NS(=O)(=O)c2ccc(/N=[N+](\[O-])c3ccc(S(=O)(=O)Nc4cc(C)on4)cc3)cc2)no1`, for which the GI50 in [1], in experiment [2], in experiment [3], in experiment [4], in experiment [5] and in [6] was > 100 µM (inactive) in each case. For the same molecule, the GI50 is > 100 µM (inactive) in experiment [7]; over 100 µM in experiment [8]; > 100 µM (inactive) in experiment [10]; > 100 µM (inactive) in [11]; > 100 µM (inactive) in experiment [12]; > 100 µM (inactive) in [13]. Further, the GI50 in experiment [14], in [15], in experiment [16], in [17], in [18] and in experiment [19] was > 100 µM (inactive) each time.

As for `O=c1[nH]/c(=C/c2cccs2)c(=O)[nH]/c1=C/c1ccc(OCc2ccccc2)cn1`, the GI50 in experiment [1] was 3.24 µM (inactive); in [2] it was 0.0312 µM (active); in experiment [3], 0.0494 µM (active); in experiment [4], 0.0276 µM (active); in experiment [5] it was 0.123 µM (active); in experiment [6], < 0.0146 µM (active). Moreover, the GI50 in experiment [7] is 0.0506 µM (active); in [8], under 0.015 µM; in experiment [9], 0.0351 µM (active); in experiment [10], 0.219 µM (active); in experiment [11], 0.144 µM (active); in [20], 0.0164 µM (active). Also, the GI50 was 3.87 µM (inactive) in experiment [12]; 0.323 µM (active) in [13]; 0.0431 µM (active) in experiment [14]; 0.0561 µM (active) in experiment [15]; 0.0171 µM (active) in experiment [16]; 0.0266 µM (active) in experiment [17]. The GI50 in [19] is 0.197 µM (active).

Consider `CCOC(=O)CC1c2ccc(O)cc2OC(=O)C1c1ccc(N)cc1` (stereo not given), for which the GI50 in experiment [1] is > 100 µM (inactive); in [2], > 100 µM (inactive); in [3], > 100 µM (inactive); in experiment [4] it was 66.1 µM (inactive); in [5], 56.6 µM (inactive); in experiment [6], > 100 µM (inactive). Further, the GI50 was > 100 µM (inactive) in experiment [7]; over 100 µM in experiment [8]; > 100 µM (inactive) in [9]; > 100 µM (inactive) in [10]; > 100 µM (inactive) in experiment [11]; > 100 µM (inactive) in [20]. Also, the GI50 in experiment [13] was > 100 µM (inactive); in experiment [14], > 100 µM (inactive); in experiment [15], > 100 µM (inactive); in [16], 86.7 µM (inactive); in experiment [17], > 100 µM (inactive); in experiment [19], 95.9 µM (inactive).

Regarding `COC(=O)/C=C1\SC2(O\C1=N/c1ccccc1)C1CC3CC(C1)CC2C3` (stereo not given), the GI50 in experiment [1], in experiment [2], in experiment [3], in experiment [4], in [5] and in [6] was > 100 µM (inactive) each time. Also, the GI50 was > 100 µM (inactive) in experiment [7]; over 100 µM in experiment [8]; > 100 µM (inactive) in [9]; > 100 µM (inactive) in [10]; > 100 µM (inactive) in experiment [11]; > 100 µM (inactive) in experiment [20]. Besides, the GI50 in experiment [12], in [14], in experiment [15], in experiment [16], in experiment [17] and in experiment [19] was > 100 µM (inactive) in each case.

For the molecule `CCCCc1ccc(Nc2nc(N)c3ncn(COCCO)c3n2)cc1`, the GI50 was 18 µM (inactive) in experiment [1]; 38.7 µM (inactive) in experiment [2]; 26.9 µM (inactive) in [3]; 36.8 µM (inactive) in [4]; 28.2 µM (inactive) in experiment [5]; 16.6 µM (inactive) in [6]. For the same molecule, the GI50 was 30.1 µM (inactive) in experiment [7]; 19.3 µM in experiment [8]; 18 µM (inactive) in [10]; 44.3 µM (inactive) in experiment [11]; 37.2 µM (inactive) in experiment [20]; 38.8 µM (inactive) in experiment [12]. The GI50 is 17.2 µM (inactive) in experiment [13]; 17 µM (inactive) in experiment [15]; 26.1 µM (inactive) in experiment [16]; 20.9 µM (inactive) in [17]; 24.4 µM (inactive) in experiment [18]; 25.9 µM (inactive) in experiment [19].

Take `CCc1nc(N)nc(N)c1-c1ccc(Cl)c([N+]#N)c1`: the GI50 in [1] was 39.4 µM (inactive); in experiment [2], 58.3 µM (inactive); in experiment [3] it was 41.8 µM (inactive); in experiment [4], 46.6 µM (inactive); in experiment [5], 44.3 µM (inactive); in experiment [6] it was 44.5 µM (inactive). Besides, the GI50 in experiment [7] is > 100 µM (inactive); in experiment [8], 28.8 µM; in experiment [9], 37.8 µM (inactive); in experiment [10], 6.58 µM (inactive); in experiment [11] it was 20.6 µM (inactive); in experiment [12] it was > 100 µM (inactive). Also, the GI50 is 56 µM (inactive) in experiment [13]; 61.7 µM (inactive) in experiment [14]; > 100 µM (inactive) in [15]; 38.7 µM (inactive) in [16]; 49.8 µM (inactive) in [17]; > 100 µM (inactive) in experiment [18]. In [19], the GI50 is 66.8 µM (inactive).

Take `COc1ccc2[nH]c3c(C)c4cc[n+](C)cc4c(C)c3c2c1`: the GI50 in experiment [1] was 7.24 µM (inactive); in [3], 1.39 µM (inactive); in experiment [4], 0.125 µM (active); in experiment [5], 0.24 µM (active); in experiment [6], 2.82 µM (inactive); in experiment [7] it was 0.798 µM (active). In addition, the GI50 in [9] is 1.26 µM (inactive); in [10] it was 1.96 µM (inactive); in [12], 6.67 µM (inactive); in experiment [14], 4.55 µM (inactive); in experiment [15] it was 2.87 µM (inactive); in experiment [16] it was 0.548 µM (active). The GI50 is 19.3 µM (inactive) in experiment [17] and 0.169 µM (active) in experiment [19].
